We go through 25 compounds from patent US10183950B2, “Thienopyrimidine inhibitors of atypical protein kinase C” (Cancer Research Technology Limited, priority 2011, dated 2019).

One experiment has as its target T1, kinase-domain human PKCι (Homo sapiens, UniProt P41743).
T1 construct: Recombinant, kinase-domain human PKCι is expressed and purified in-house; made in house
T1 sequence (P41743 254-522 limits assumed): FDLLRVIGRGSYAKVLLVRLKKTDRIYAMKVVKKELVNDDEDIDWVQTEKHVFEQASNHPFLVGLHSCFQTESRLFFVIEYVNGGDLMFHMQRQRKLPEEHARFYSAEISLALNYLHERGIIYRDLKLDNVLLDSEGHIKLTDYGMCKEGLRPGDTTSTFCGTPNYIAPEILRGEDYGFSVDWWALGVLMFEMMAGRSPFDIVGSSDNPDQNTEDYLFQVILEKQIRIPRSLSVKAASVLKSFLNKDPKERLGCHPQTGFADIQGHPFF
Briefly: PKCι IC50 IMAP fluorescence polarisation assay, kinase-domain enzyme. The experiment is classed as biochemical. The settings on record: kinase domain PKCi at 2 μM ATP; read-out: IC50 in IMAP assay against kinase domain PKCi (Activity). As to the method: Assays are based on the ability of PKCι to phosphorylate a commercially available peptide substrate in vitro. […] Recombinant, full-length human PKCι expressed in Sf21 insect cells is also commercially available. Recombinant, kinase-domain human PKCι is expressed and purified in-house.
The procedure below explains how dose response curves for inhibitors of PKCι are obtained.
Compounds to be tested are dissolved in 100% DMSO. […] 1 μl is plated into 384 well black low-binding flat bottomed assay plates which are used immediately. Dilutions and additions of compound to assay plates are carried out using Matrix WellMate® and Matrix PlateMate® Plus liquid handling systems.
The final concentration of peptide substrate in the assay is 100 nM. […] Relevant controls are included, namely no compound and no enzyme. […] The reaction is allowed to incubate for 60 minutes at room temperature, before the reaction is stopped and developed by the addition of 20 μl IMAP™ development reagent (Molecular Devices). IMAP development reagent consists of 0.25% (v/v) IMAP progressive binding reagent, 17% (v/v) IMAP progressive binding buffer A and 3% (v/v) IMAP progressive binding buffer B. The plates are then incubated for 2 hours at room temperature before being read using an appropriate plate reader, for example a Molecular Devices HT Analyst or a BMG Pherastar.
A general note: Polarisation of emitted light reports the rotation of a fluorescent probe.

The next experiment has as its target T2, full-length human PKCι (Homo sapiens, UniProt P41743).
T2 construct: Recombinant, full-length human PKCι expressed in Sf21 insect cells is also commercially available; purchased; host or cells: Sf21 insect cells
T2 sequence (P41743 1-596): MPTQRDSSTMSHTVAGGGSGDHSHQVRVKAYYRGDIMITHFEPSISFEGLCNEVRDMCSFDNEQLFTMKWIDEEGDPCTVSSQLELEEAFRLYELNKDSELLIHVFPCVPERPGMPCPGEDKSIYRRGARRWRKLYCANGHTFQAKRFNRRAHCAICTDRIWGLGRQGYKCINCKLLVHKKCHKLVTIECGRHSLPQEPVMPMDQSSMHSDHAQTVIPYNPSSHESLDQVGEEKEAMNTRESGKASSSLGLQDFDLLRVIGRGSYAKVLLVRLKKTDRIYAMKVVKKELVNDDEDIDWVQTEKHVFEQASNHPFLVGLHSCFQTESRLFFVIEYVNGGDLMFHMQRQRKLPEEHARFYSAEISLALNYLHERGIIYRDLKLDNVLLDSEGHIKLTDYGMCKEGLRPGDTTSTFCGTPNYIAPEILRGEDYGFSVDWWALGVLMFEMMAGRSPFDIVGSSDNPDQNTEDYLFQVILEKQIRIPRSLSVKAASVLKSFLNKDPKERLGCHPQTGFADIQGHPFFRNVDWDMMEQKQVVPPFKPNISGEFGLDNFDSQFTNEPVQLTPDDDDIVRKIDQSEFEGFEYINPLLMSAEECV
Briefly: PKCι IC50 IMAP fluorescence polarisation assay, full-length enzyme. The experiment is classed as biochemical. The conditions noted are these: full length PKCi at 15 μM ATP; read-out: IC50 in IMAP assay against full length PKCi.

By IC50 is commonly meant the concentration that inhibits the measured activity by half. In the case of `CN(C)CCNc1nc(-c2ccncc2)nc2sc3c(c12)CCCC3` [compound 1, N,N-dimethyl-N′-(2-pyridin-4-yl-5,6,7,8-tetrahydro-benzo[4,5]thieno[2,3-d]pyrimidin-4-yl)-ethane-1,2-diamine], the IC50 at kinase-domain human PKCι lay within 1 to 10 µM.
Take `CN(C)S(=O)(=O)c1ccc(Nc2cc(-c3nc(N[C@@H]4CCNC4)c4sccc4n3)ccn2)cc1` [compound 610, N,N-Dimethyl-4-{4-[4-((R)-pyrrolidin-3-ylamino)-thieno[3,2-d]pyrimidin-2-yl]-pyridin-2-ylamino}-benzenesulfonamide]: at full-length human PKCι, the IC50 fell in the range of 1 to 10 µM.
With `c1cc(-c2nc(N[C@@H]3CCNC3)c3sccc3n2)cc(Nc2ccc(CN3CCCC3)cc2)n1` [compound 611, (R)-Pyrrolidin-3-yl-{2-[2-(4-pyrrolidin-1-ylmethyl-phenylamino)-pyridin-4-yl]-thieno[3,2-]pyrimidin-4-yl}-amine], at full-length human PKCι, the IC50 lay in the range of 1 to 10 µM.
Consider `CN1CCN(C(=O)c2ccc(Nc3cc(-c4nc(N[C@@H]5CCNC5)c5sccc5n4)ccn3)cc2)CC1` [compound 613, (4-Methyl-piperazin-1-yl)-(4-{4-[4-((R)-pyrrolidin-3-ylamino)-thieno[3,2-d]pyrimidin-2-yl]-pyridin-2-ylamino}-phenyl)-methanone], for which, at full-length human PKCι, the IC50 fell in the range of 0.1 to 1 µM.
With `c1cn(Cc2ccc(Nc3cc(-c4nc(N[C@@H]5CCNC5)c5sccc5n4)ccn3)cc2)cn1` [compound 614, {2-[2-(4-Imidazol-1-ylmethyl-phenylamino)-pyridin-4-yl]-thieno[3,2-d]pyrimidin-4-yl}-(R)-pyrrolidin-3-yl-amine], the IC50 at full-length human PKCι was 0.1 to 1 µM.
On to `O=C(Nc1cc(-c2nc(N[C@@H]3CCNC3)c3sccc3n2)ccn1)c1cnccn1` [compound 615, Pyrazine-2-carboxylic acid {4-[4-((R)-pyrrolidin-3-ylamino)-thieno[3,2-d]pyrimidin-2-yl]-pyridin-2-yl}-amide], for which the IC50 on full-length human PKCι is 1 to 10 µM.
Same read-out and setting: then `c1csc(-c2ccc(Nc3cc(-c4nc(N[C@@H]5CCNC5)c5sccc5n4)ccn3)cc2)c1` [compound 616, (R)-Pyrrolidin-3-yl-{2-[2-(4-thiophen-2-yl-phenylamino)-pyridin-4-yl]-thieno[3,2-d]pyrimidin-4-yl}-amine], with 0.1 to 1 µM; and `c1cc(-c2nc(N[C@@H]3CCNC3)c3sccc3n2)cc(Nc2ccc(-c3ccsc3)cc2)n1` [compound 617, (R)-Pyrrolidin-3-yl-{2-[2-(4-thiophen-3-yl-phenylamino)-pyridin-4-yl]-thieno[3,2-d]pyrimidin-4-yl}-amine], with 0.1 to 1 µM; and `O=C(Nc1cc(-c2nc(N[C@@H]3CCNC3)c3sccc3n2)ccn1)c1ccc(F)cc1` [compound 618, 4-Fluoro-N-{4-[4-((R)-pyrrolidin-3-ylamino)-thieno[3,2-d]pyrimidin-2-yl]-pyridin-2-yl}-benzamide], with 0.1 to 1 µM.
Still for that read-out and setting: for `Fc1c(-c2nc(N[C@@H]3CCNC3)c3sccc3n2)ccnc1Nc1ccccc1` [compound 619, [2-(3-Fluoro-2-phenylamino-pyridin-4-yl)-thieno[3,2-d]pyrimidin-4-yl]-(R)-pyrrolidin-3-yl-amine] the value was 10 to 40 µM.
The same measure, in the same setting: then `CN1CCN(c2ccc(C(=O)Nc3cc(-c4nc(N[C@@H]5CCNC5)c5sccc5n4)ccn3)cc2)CC1` [compound 620, 4-(4-Methyl-piperazin-1-yl)-N-{4-[4-((R)-pyrrolidin-3-ylamino)-thieno[3,2-d]pyrimidin-2-yl]-pyridin-2-yl}-benzamide], with 0.1 to 1 µM; and `O=C(Nc1cc(-c2nc(N[C@@H]3CCNC3)c3sccc3n2)ccn1)c1ccc(N2CCOCC2)cc1` [compound 621, 4-Morpholin-4-yl-N-{4-[4-((R)-pyrrolidin-3-ylamino)-thieno[3,2-d]pyrimidin-2-yl]-pyridin-2-yl}-benzamide], with 0.1 to 1 µM; and `O=S(=O)(Nc1cc(-c2nc(N[C@@H]3CCNC3)c3sccc3n2)ccn1)C1CC1` [compound 622, Cyclopropanesulfonic acid {4-[4-((R)-pyrrolidin-3-ylamino)-thieno[3,2-d]pyrimidin-2-yl]-pyridin-2-yl}-amide], with 10 to 40 µM.
Regarding `c1cc(-c2nc(N[C@@H]3CCNC3)c3sccc3n2)cc(NC2CCCCC2)n1` [compound 623, [2-(2-Cyclohexylamino-pyridin-4-yl)-thieno[3,2-d]pyrimidin-4-yl]-(R)-pyrrolidin-3-yl-amine], on full-length human PKCι, the IC50 lay in the range of 10 to 40 µM.
The same measure, in the same setting: for `CS(=O)(=O)Nc1cc(-c2nc(N[C@@H]3CCNC3)c3sccc3n2)ccn1` [compound 624, N-{4-[4-((R)-Pyrrolidin-3-ylamino)-thieno[3,2-d]pyrimidin-2-yl]-pyridin-2-yl}-methanesulfonamide] the value was 10 to 40 µM; for `c1cc(-c2nc(N[C@@H]3CCNC3)c3sccc3n2)cc(NC2CCOCC2)n1` [compound 625, (R)-Pyrrolidin-3-yl-{2-[2-(tetrahydro-pyran-4-ylamino)-pyridin-4-yl]-thieno[3,2-d]pyrimidin-4-yl}-amine], 10 to 40 µM.
For the compound `CC(C)Nc1cc(-c2nc(N[C@@H]3CCNC3)c3sccc3n2)ccn1` [compound 626, [2-(2-Isopropylamino-pyridin-4-yl)-thieno[3,2-d]pyrimidin-4-yl]-(R)-pyrrolidin-3-yl-amine], the IC50 on full-length human PKCι lay in the range of 1 to 10 µM.
Take `O=C(Nc1cc(-c2nc(N[C@H]3CNC[C@@H]3O)c3sccc3n2)ccn1)c1cccs1` [compound 627, Thiophene-2-carboxylic acid {4-[4-((3S,4S)-4-hydroxy-pyrrolidin-3-ylamino)-thieno[3,2-d]pyrimidin-2-yl]-pyridin 2-yl}-amide]: the half-maximal inhibitory concentration (IC50) at full-length human PKCι lay in the range of 1 to 10 µM.
Consider `CN1CC[C@@H](Nc2nc(-c3ccnc(NC(=O)c4cccs4)c3)nc3ccsc23)C1` [compound 628, Thiophene-2-carboxylic acid {4-[4-((R)-1-methyl-pyrrolidin-3-ylamino)-thieno[3,2-d]pyrimidin-2-yl]-pyridin-2-yl}-amide], for which the concentration for half-maximal inhibition (IC50) at full-length human PKCι lay within 1 to 10 µM.
For the compound `NC(=O)CN1C[C@H](Nc2nc(-c3ccnc(NC(=O)c4cccs4)c3)nc3ccsc23)[C@@H](O)C1` [compound 629, Thiophene-2-carboxylic acid {4-[4-((3S,4S)-1-carbamoylmethyl-4-hydroxy-pyrrolidin-3-ylamino)-thieno[3,2-d]pyrimidin-2-yl]-pyridin-2-yl}-amide], at full-length human PKCι, the IC50 was 1 to 10 µM.
The same measure, in the same setting: for `N[C@H](CNc1nc(-c2ccnc(NC(=O)c3cccs3)c2)nc2ccsc12)Cc1ccc(C(F)(F)F)cc1` [compound 630, Thiophene-2-carboxylic acid (4-{4-[(S)-2-amino-3-(4-trifluoromethyl-phenyl)-propylamino]-thieno[3,2-d]pyrimidin-2-yl}-pyridin-2-yl)-amide] the value was 10 to 40 µM.
Same read-out and setting: then `NC(=O)CN1CC[C@@H](Nc2nc(-c3ccnc(Nc4ccccc4)c3)nc3ccsc23)C1` [compound 631, 2-{(R)-3-[2-(2-Phenylamino-pyridin-4-yl)-thieno[3,2-d]pyrimidin-4-ylamino]-pyrrolidin-1-yl}-acetamide], with 10 to 40 µM; and `c1cc(-c2nc(N[C@@H]3CCNC3)c3sccc3n2)cc(Sc2cc(-c3nc(N[C@@H]4CCNC4)c4sccc4n3)ccn2)n1` [compound 632], with 1 to 10 µM.
On the same count and under the same terms, for `Cc1[nH]ncc1-c1nc(N[C@@H]2CCNC2)c2sccc2n1` [compound 633, [2-(5-Methyl-1H-pyrazol-4-yl)-thieno[3,2-d]pyrimidin-4-yl]-(R)-pyrrolidin-3-yl-amine] the value was 10 to 40 µM; for `Cc1[nH]ncc1-c1nc(NC[C@@H](N)Cc2ccccc2)c2sccc2n1` [compound 634, (S)-N*1*-[2-(5-Methyl-1H-pyrazol-4-yl)-thieno[3,2-d]pyrimidin-4-yl]-3-phenyl-propane-1,2-diamine], 1 to 10 µM.
